The source of these data is patent US10864273B2, “Thiobase compounds for photodynamic therapy” (CASE WESTERN RESERVE UNIVERSITY, priority 2015, dated 2020).

Structures are written as SMILES. Read-outs that look alike come from different tables or passages of the source.

Usually pKa stands for the negative logarithm of the acid dissociation constant.

Data set [1] can be described thus: Femtosecond broadband transient absorption spectroscopy of the thiothymine series (intersystem crossing, triplet yield). It counts as physicochemical. The procedure: Femtosecond transient absorption spectroscopy was performed using a Ti— Sapphire regenerative amplifier laser system (Libra-HE, Coherent, Inc.; 800 nm, 100 fs, 4.0 W at 1 kHz). 2.6 W of the 800 nm beam were used to pump an optical parametric amplifier (TOPAS, Quantronix/Light Conversion) to generate the excitation beam at selected wavelengths of 320, 335, and 360 nm. Contributions to the excitation beam from other wavelengths and polarizations were removed by a reflective wavelength filter (λ-filter) and a Glan-Taylor polarizer, respectively, and the polarization was randomized using a depolarizing plate in order to prevent rotational effects from contributing to the dynamics, as described in details elsewhere.
A Helios spectrometer (Ultrafast Systems, LLC.) was used for pump-probe measurements. A fraction of the fundamental (800 nm) beam from the Libra-HE was used to generate white light continuum (WLC). The Helios spectrometer uses an optical delay line with a maximum delay of ˜3 ns for the 800 nm beam, which was used to pump a continuously-moving 2 mm CaF2 plate for generation of the WLC broadband probe pulse covering the spectral range from ˜320-700 nm. The probe light was then passed through a 730 nm low-pass dichroic optical filter, so as to block residual fundamental beam and to avoid saturating the complementary metal-oxide-semiconductor (CMOS) detectors. The probe pulse was then split into two beams, both of which were recollimated and focused into the optical fibers leading to their respective CMOS detectors. In this setup, one of the beams serves as reference, while the other is used to probe the sample of interest. A synchronized chopper wheel was used to block every other pump pulse, such that the difference in absorption between two consecutive measurements gives the transient spectrum. The excitation beam was attenuated to 1 μJ/pulse at the sample using a neutral density optical filter before entering the spectrometer. The excitation pulse was focused to a beam diameter three times larger than that of the probe beam at the sample position. Detection time windows of 20 and 200 ps were used in this work.
All solutions were prepared using pH 7.4 aqueous phosphate buffer, with a total phosphate concentration of 16 mM. The solution was continuously stirred in a 2 mm optical path length quartz cell (Starna Cells, Inc.) using a Teflon-coated magnetic stirring bar so as to bring fresh sample to the pump-probe region for each measurement. The solution in the cuvette was replaced with a fresh sample, from the same stock solution, every 5-7 scans, so that all scans had no more than 5% decrease in absorbance at the lowest-energy absorption-band maximum as determined by steady-state absorption spectroscopy.
All broadband transient absorption data were corrected for group velocity dispersion (GVD) of the WLC using a home-made LabView program (National Instruments, Inc.) as previously described. 3 Analysis of transient absorption kinetics was performed in Igor Pro 6.32A (WaveMetrics, Inc.) using the target analysis method, as described previously, and a sequential kinetic model convoluted with an instrument response function of ˜200 fs (FWHM). The instrument response was determined from the coherence signal of neat methanol generated at the sample cell. Global fitting analysis was performed using 15 to 30 representative kinetic traces covering the full range of probe wavelengths. At least three independent datasets (i.e., recorded on three different days) were used in the analysis and all uncertainties are reported as twice the standard deviation of the average lifetime. Decay associated spectra shown in FIG. 7A were extracted from the global fitting analysis of the transient decay traces taken every third probe wavelength across the entire WLC range.

The conditions of data set [2]: pH 7.4 phosphate buffer solution, cited from earlier work; for ΦT triplet quantum yield: previously reported values.
The nature of data set [3]: Steady-state absorption spectroscopy, thymine series. Particulars: phosphate buffer solution at pH 7.4. It counts as physicochemical. From the text: 2-thiothymine (2tThy, 98% purity) was obtained from AK Scientific, 4-thiothymidine (4tThd, 99% purity) was obtained from Carbosynth Ltd., and 2-thiothymidine (2tThd) and 2,4-dithiothymine (2,4dtThy) were obtained from Sigma Aldrich. All compounds were used as received. The purity of these compounds was ensured by using fluorescence spectroscopy and by comparison with the published absorption maxima and their corresponding extinction coefficients. Phosphate buffer solutions were freshly prepared using 0.12 g of sodium dihydrogen phosphate and 0.089 g of disodium hydrogen phosphate dissolved in 100 mL of ultrapure water and adjusted to pH 7.4 using a 2 M NaOH solution. Steady-state absorption spectra were measured using a Cary 100 Bio spectrometer. All absorption spectra were corrected for the solvent background by subtraction of the absorption of the solvent.
Specifically, sulfur substitution of the C2 carbonyl in thymine results in about a 10 nm redshift in the absorption maximum, whereas substitution at the C4 position results in a redshift of about 70 nm. Remarkably, double-substitution results in about a 100 nm redshift of the lowest-energy absorption band of thymidine (ΔE=9905 cm^−1), without an appreciable change in the magnitude of the extinction coefficient at the corresponding wavelengths (1×10^4 M^−1 cm^−1). Replacement of an oxygen atom by a sulfur atom in a carbonyl bond is expected to shift the absorption spectrum to the red because the thiocarbonyl is weaker than the carbonyl bond and the excited electronic states in thiocarbonyl compounds are typically found at lower energies. However, the difference in bond strengths between a carbonyl and thiocarbonyl bond cannot solely explain the large spectral shift observed between 2tThy/2tThd and 4tThd. Furthermore, the redshift in the absorption spectrum of 2,4dtThy cannot simply be expressed as a linear combination of the absorption spectra of the 2tThy/2tThd and 4tThd derivatives. […] Glycosylation of 2tThy, generating 2tThd, results in a 2 nm redshift in the absorption maximum and about 2-fold increase in the molar absorptivity coefficients (FIG. 1B). The same effect has been previously documented in the natural bases and in other thiobases. Therefore, glycosylation of 2,4dtThy to form 2,4-dithiothymidine is expected to redshift the absorption spectrum slightly and to increase the molar absorptivity coefficients.

For data set [4] the following is noted: O2-saturated acetonitrile solution; previously measured / standard value; cited from earlier work.
The conditions of data set [5]: cited from earlier work.
Data set [6] in a line: Femtosecond to microsecond transient absorption spectroscopy of the thiouracil series (intersystem crossing, triplet yield, triplet decay, triplet-triplet extinction).
From the text: Briefly, 800 nm, 100 fs fundamental pulses were generated with a Ti-Sapphire regenerative amplifier laser system (Libra-HE, Coherent, Inc.: 4.0 W, 1 kHz). The fundamental beam was used to produce pump wavelengths of 320, 335, and 350 nm via an optical parametric amplifier (TOPAS, Quantronix/Light Conversion). Unwanted wavelengths were removed from the pump beam using a reflective wavelength filter and a Glan-Taylor polarizer. A fraction of the remaining fundamental beam was focused into a continuously moving CaF2 plate (2 mm thick) to generate broadband white light probe pulses (320-700 nm). The intensity of the excitation beam was attenuated to 1 mJ per pulse at the sample position. The polarization of the pump beam was randomized before being focused into the sample to overlap with the white light continuum probe at a 3:1 beam diameter ratio. Pump-probe experiments were collected using a Helios spectrometer (Ultrafast Systems, LLC) and a home-made data acquisition software (LabView, National Instruments, Inc.).
Solutions of the 2tUra, 4tUra, and 2,4dtUra derivatives were prepared in aqueous phosphate-buffered saline at pH 7.4. […] Solutions were investigated in 2 mm optical path length quartz cells and the irradiated volume was continuously refreshed by stirring with a Teflon-coated magnetic stir bar. Contributions to the transient data from any putative photoproduct formation were prevented by replacing the solution with fresh stock solution every 5 scans, or before 6% sample degradation (as monitored by a decrease in the steady-state absorbance of the lowest-energy absorption band). The UVA excitation wavelength used was varied depending on the absorption spectrum of the specific thiouracil derivative investigated. For 2tUra, an excitation wavelength of 320 nm was used, whereas 2,4dtUra was excited at 335 and 350 nm, and 4tUra was excited at all three of these UVA wavelengths.
Decay of the triplet state of 4tUra and 2,4dtUra to the ground state was monitored using the same excitation and detection setups but probing with an electronically triggered broadband white light source (Eos, Ultrafast Systems, LLC) that has been conveniently integrated into the Helios spectrometer. This probe source has a spectral window from B375 to 800 nm, a time resolution of about 400 ps, and a temporal window of up to 120 ms. […] Data were collected with the solutions under a constant nitrogen flow, and exciting at 350 nm with 3 mJ per pulse for 10 min, corresponding to less than 5% degradation.
For each data set, between 50 and 100 traces were selected across the entire range of probe wavelengths and globally analyzed in Igor Pro 6.32A (WaveMetrics, Inc.). […] 83 The uncertainties reported for the triplet population lifetimes are twice the standard deviation from the average fitting of at least three independent datasets (i.e., recorded on three different days). Triplet-triplet absorption spectra were extracted from the global fitting analysis.
Data set [7] in a line: Singlet oxygen quantum yield by phosphorescence at 1270 nm, thiouracil series. It counts as physicochemical. The procedure: Solutions of 4tUra, 2,4dtUra, and the singlet oxygen standard (phenalenone; ΦΔ=0.98) were prepared in acetonitrile, each with an absorbance of 0.3 at 355 nm in a 1×1 cm quartz cuvette. The solutions were purged with oxygen for 30 min, followed by the determination of quantum yields from back-toback measurements of the singlet oxygen phosphorescence intensity at 1270 nm. The O2-saturated solutions were excited at 355 nm (Spectra Physics GCR-150-30: 7 ns pulse width) and the phosphorescence at 1270 nm was detected with a NIR sensitive photomultiplier tube (H10330A-45, Hamamatsu).
The singlet oxygen (^1O2) quantum yields of 4tUra and 2,4dtUra were measured by monitoring the characteristic phosphorescence of ^1O2 at 1270 nm with nanosecond time resolution.

The subject of data set [8] is adenosine 5′-monophosphate (5′-AMP). Put plainly: Photoreactivity with adenosine 5′-monophosphate upon 365 nm irradiation in N2-saturated buffer. Particulars: with 5′-AMP, 1:5 molar ratio (24 and 120 mM); 365 nm irradiation; N2-saturated aqueous buffer pH 7.4. The protocol: Aqueous phosphate-buffered saline solutions, pH 7.4, containing either 4tUra or 2,4dtUra were prepared with and without 5′-AMP and loaded into 1×1 cm septum-top quartz cuvettes. The concentrations of the thiouracil derivatives and 5′-AMP were […], respectively. These concentrations were chosen in order to favor the bimolecular photoreaction between the thiouracil derivative and 50-AMP, while simultaneously maintaining the absorbance of the solutions within the linear dynamic range limit of the UV-visible spectrophotometer used. All solutions were purged with ultrapure nitrogen for 30 min and kept under constant nitrogen flow throughout the irradiation period. An optical parametric amplifier (TOPAS, Quantronix/Light Conversion) pumped by our Libra laser system (described above) was used for monochromatic (±1 nm) irradiation of the samples. […] Absorbance changes in the thiouracil solutions, with and without 5′-AMP, were monitored periodically using UV-visible spectroscopy (Cary 100 Bio) during irradiation at 365 nm for up to 90 min and while stored in the dark for up to three and a half days.
In order to scrutinize the light-induced reactivity of these sensitizers toward biomolecules, aqueous phosphate-buffered saline solutions of either 4tUra or 2,4dtUra were prepared in the presence of the RNA monomer adenosine 5′-monophosphate (5′-AMP) at a 1:5 molar ratio. […] The experimental conditions were chosen in order to facilitate the extraction of relative photoreaction rates from the changes in the steady-state absorption spectra with irradiation time. […]

[9] abbreviates: aqueous phosphate-buffered saline solution, pH 7.4.

For `Cc1cn([C@H]2C[C@H](O)[C@@H](CO)O2)c(=S)[nH]c1=O` [2tThd, 2-thiothymidine], the “τISC intersystem crossing lifetime” value in data set [1] (pH 7.4 phosphate buffer solution, probe 600 nm) is listed as 410 ± 60 fs. The “ΦT triplet quantum yield” value in data set [2] is listed as 0.9 ± 0.1.
As for `Cc1cn([C@H]2C[C@H](O)[C@@H](CO)O2)c(=O)[nH]c1=O` [Thd, thymidine], in data set [3], the “maximum of lowest-energy absorption band” value is listed as approximately 267 nm and the “ε at maximum of lowest-energy absorption band” value is on record as “≈ 9.9×10^3 M^−1 cm^−1”. Moreover, in data set [2], the “ΦT triplet quantum yield” value was 0.014 ± 0.001. Moreover, in data set [2] (recently reported value for thymidine), the “τISC intersystem crossing lifetime” value is given as 760 fs. The “ΦΔ singlet oxygen quantum yield” value in data set [4] is 0.07 ± 0.01.
On to `O=c1cc[nH]c(=S)[nH]1` [2tUra, 2-thiouracil], for which the pKa in data set [5] is reported as 7.74. Besides, the “τISC intersystem crossing lifetime” value in data set [6] (setting [9]) came out at 360 ± 30 fs.
As to `O=c1[nH]ccc(=S)[nH]1` [4tUra, 4-thiouracil], the “ΦΔ singlet oxygen quantum yield” value in data set [7] (O2-saturated acetonitrile, 355 nm excitation, phenalenone standard) came out at 0.49±0.02. In addition, in data set [7] (excited to lowest-energy absorption band), the “1O2 yield relative to uracil” value was found to be 3.3 fold. The 1O2 yield entry in data set [7] (following UVA excitation) was “ca. 50%”. Further, the photoreaction rate entry in data set [8] is listed as “(0.39±0.04)×10^−9 M s^−1”. For the same compound, in data set [5], the pKa is on record as 8.0. Moreover, the “τISC intersystem crossing lifetime” value in data set [6] (setting [9]) was 240 ± 20 fs. For the same compound, the “κT triplet-state decay rate” value in data set [6] (aqueous phosphate-buffered saline solution, pH 7.4, 24 mM solutions, nitrogen-purged, 350 nm excitation) is 1.7 ± 0.3 10^6 s^−1. Moreover, the triplet-triplet extinction coefficient in data set [6] (at 600 nm, singlet depletion method) was determined as 3000 ± 600 M⁻¹ cm⁻¹.
For the compound `Cc1c[nH]c(=S)[nH]c1=O` [2tThy, 2-thiothymine], in data set [1], the “intersystem crossing rate increase relative to Thd” value turned out to be 1.2 fold. Also, in data set [2], the “ΦT triplet quantum yield” value is reported as 0.9 ± 0.1. Moreover, the “ΦΔ singlet oxygen quantum yield” value in data set [4] is 0.36 ± 0.02.
